Experiments:
SK-MEL-5 = experiment: NCI single dose (10 µM) SRB screen; format: cell-based, human; conditions: melanoma, 48 h
NCI-H522 = experiment: NCI single dose (10 µM) SRB screen; format: cell-based, human; conditions: non-small cell lung cancer, 48 h
NCI 60 cancer cell lines = experiment: NCI single dose (10 µM) SRB screen, mean over panel; format: cell-based, human; conditions: mean over 60 cell lines, 48 h
CCRF-CEM = experiment: NCI single dose (10 µM) SRB screen; format: cell-based, human; conditions: leukaemia, 48 h
A549/ATCC = experiment: NCI single dose (10 µM) SRB screen; format: cell-based, human; conditions: non-small cell lung cancer, 48 h
U251 = experiment: NCI single dose (10 µM) SRB screen; format: cell-based, human; conditions: CNS cancer, 48 h
OVCAR-3 = experiment: NCI single dose (10 µM) SRB screen; format: cell-based, human; conditions: ovarian cancer, 48 h
PC-3 = experiment: NCI single dose (10 µM) SRB screen; format: cell-based, human; conditions: prostate cancer, 48 h
SW-620 = experiment: NCI single dose (10 µM) SRB screen; format: cell-based, human; conditions: colon cancer, 48 h
SR = experiment: NCI single dose (10 µM) SRB screen; format: cell-based, human; conditions: leukaemia, 48 h
HL-60(TB) = experiment: NCI single dose (10 µM) SRB screen; format: cell-based, human; conditions: leukaemia, 48 h
KM12 = experiment: NCI single dose (10 µM) SRB screen; format: cell-based, human; conditions: colon cancer, 48 h
CAKI-1 = experiment: NCI single dose (10 µM) SRB screen; format: cell-based, human; conditions: renal cancer, 48 h
SK-MEL-28 = experiment: NCI single dose (10 µM) SRB screen; format: cell-based, human; conditions: melanoma, 48 h
MALME-3M = experiment: NCI single dose (10 µM) SRB screen; format: cell-based, human; conditions: melanoma, 48 h
M14 = experiment: NCI single dose (10 µM) SRB screen; format: cell-based, human; conditions: melanoma, 48 h
MOLT-4 = experiment: NCI single dose (10 µM) SRB screen; format: cell-based, human; conditions: leukaemia, 48 h
A498 = experiment: NCI single dose (10 µM) SRB screen; format: cell-based, human; conditions: renal cancer, 48 h
IGROV1 = experiment: NCI single dose (10 µM) SRB screen; format: cell-based, human; conditions: ovarian cancer, 48 h
NCI-H226 = experiment: NCI single dose (10 µM) SRB screen; format: cell-based, human; conditions: non-small cell lung cancer, 48 h
RXF 393 = experiment: NCI single dose (10 µM) SRB screen; format: cell-based, human; conditions: renal cancer, 48 h
MCF7 = experiment: NCI single dose (10 µM) SRB screen; format: cell-based, human; conditions: breast cancer, 48 h
OVCAR-8 = experiment: NCI single dose (10 µM) SRB screen; format: cell-based, human; conditions: ovarian cancer, 48 h
HT29 = experiment: NCI single dose (10 µM) SRB screen; format: cell-based, human; conditions: colon cancer, 48 h
MDA-MB-468 = experiment: NCI single dose (10 µM) SRB screen; format: cell-based, human; conditions: breast cancer, 48 h
MDA-MB-435 = experiment: NCI single dose (10 µM) SRB screen; format: cell-based, human; conditions: melanoma, 48 h
SNB-75 = experiment: NCI single dose (10 µM) SRB screen; format: cell-based, human; conditions: CNS cancer, 48 h
Aspergillus flavus = experiment: Agar well diffusion method; conditions: for % activity index, A. flavus: relative to clotrimazole
SN12C = experiment: NCI single dose (10 µM) SRB screen; format: cell-based, human; conditions: renal cancer, 48 h
SK-OV-3 = experiment: NCI single dose (10 µM) SRB screen; format: cell-based, human; conditions: ovarian cancer, 48 h
SF-268 = experiment: NCI single dose (10 µM) SRB screen; format: cell-based, human; conditions: CNS cancer, 48 h
Staphylococcus aureus = experiment: Agar well diffusion method; conditions: for % activity index, S. aureus: relative to ciprofloxacin
HCT-116 = experiment: NCI single dose (10 µM) SRB screen; format: cell-based, human; conditions: colon cancer, 48 h
NCI-H23 = experiment: NCI single dose (10 µM) SRB screen; format: cell-based, human; conditions: non-small cell lung cancer, 48 h
Bacillus subtilis = experiment: Agar well diffusion method; conditions: for % activity index, B. subtilis: relative to ciprofloxacin
SF-295 = experiment: NCI single dose (10 µM) SRB screen; format: cell-based, human; conditions: CNS cancer, 48 h
OVCAR-4 = experiment: NCI single dose (10 µM) SRB screen; format: cell-based, human; conditions: ovarian cancer, 48 h
NCI/ADR-RES = experiment: NCI single dose (10 µM) SRB screen; format: cell-based, human; conditions: ovarian cancer, 48 h
DU-145 = experiment: NCI single dose (10 µM) SRB screen; format: cell-based, human; conditions: prostate cancer, 48 h
ACHN = experiment: NCI single dose (10 µM) SRB screen; format: cell-based, human; conditions: renal cancer, 48 h
TK-10 = experiment: NCI single dose (10 µM) SRB screen; format: cell-based, human; conditions: renal cancer, 48 h
SF-539 = experiment: NCI single dose (10 µM) SRB screen; format: cell-based, human; conditions: CNS cancer, 48 h
NCI-H460 = experiment: NCI single dose (10 µM) SRB screen; format: cell-based, human; conditions: non-small cell lung cancer, 48 h
COLO 205 = experiment: NCI single dose (10 µM) SRB screen; format: cell-based, human; conditions: colon cancer, 48 h
RPMI-8226 = experiment: NCI single dose (10 µM) SRB screen; format: cell-based, human; conditions: leukaemia, 48 h
SNB-19 = experiment: NCI single dose (10 µM) SRB screen; format: cell-based, human; conditions: CNS cancer, 48 h
LOX IMVI = experiment: NCI single dose (10 µM) SRB screen; format: cell-based, human; conditions: melanoma, 48 h
786-0 = experiment: NCI single dose (10 µM) SRB screen; format: cell-based, human; conditions: renal cancer, 48 h
Escherichia coli = experiment: Agar well diffusion method; conditions: for % activity index, E. coli: relative to ciprofloxacin
OVCAR-5 = experiment: NCI single dose (10 µM) SRB screen; format: cell-based, human; conditions: ovarian cancer, 48 h
NCI-H322M = experiment: NCI single dose (10 µM) SRB screen; format: cell-based; conditions: non-small cell lung cancer, 48 h
UACC-257 = experiment: NCI single dose (10 µM) SRB screen; format: cell-based, human; conditions: melanoma, 48 h

## CCOC(=O)C1=C(C)NC(C)=C(C(=O)OCc2ccccc2)C1c1cccc(C#N)c1 (racemic) [Compound 2l, (±)-3- Benzyl 5-ethyl 4-(3-cyanophenyl)-2,6-dimethyl-1,4-dihydropyridine-3,5-dicarboxylate]
SK-MEL-5
  GI% SK-MEL-5: 45%
NCI-H522
  GI% NCI-H522: 90%
NCI 60 cancer cell lines
  Mean GI%: 64%
CCRF-CEM
  GI% CCRF-CEM: 74%
A549/ATCC
  GI% A549/ATCC: 65%
U251
  GI% U251: 58%
OVCAR-3
  GI% OVCAR-3: 76%
PC-3
  GI% PC-3: 66%
SW-620
  GI% SW-620: 70%
SR
  GI% SR: 78%
HL-60(TB)
  GI% HL-60(TB): 83%
KM12
  GI% KM12: 74%
CAKI-1
  GI% CAKI-1: 67%
SK-MEL-28
  GI% SK-MEL-28: 48%
MALME-3M
  GI% MALME-3M: 62%
M14
  GI% M14: 85%
MOLT-4
  GI% MOLT-4: 68%
A498
  GI% A498: 104%
IGROV1
  GI% IGROV1: 57%
NCI-H226
  GI% NCI-H226: 41%
RXF 393
  GI% RXF 393: 55%
MCF7
  GI% MCF7: 78%
OVCAR-8
  GI% OVCAR-8: 51%
HT29
  GI% HT29: 88%
MDA-MB-468
  GI% MDA-MB-468: 84%
MDA-MB-435
  GI% MDA-MB-435: 110%
SNB-75
  GI% SNB-75: 104%
Aspergillus flavus
  % activity index, A. flavus: – (Values below 25 are of limited value and not shown as they refer either to inactive or non-diffusing compounds)
SN12C
  GI% SN12C: 63%
SK-OV-3
  GI% SK-OV-3: 24%
SF-268
  GI% SF-268: 42%
Staphylococcus aureus
  % activity index, S. aureus: – (Values below 25 are of limited value and not shown as they refer either to inactive or non-diffusing compounds)
HCT-116
  GI% HCT-116: 86%
NCI-H23
  GI% NCI-H23: 37%
Bacillus subtilis
  % activity index, B. subtilis: – (Values below 25 are of limited value and not shown as they refer either to inactive or non-diffusing compounds)
SF-295
  GI% SF-295: 84%
OVCAR-4
  GI% OVCAR-4: 28%
NCI/ADR-RES
  GI% NCI/ADR-RES: 77%
DU-145
  GI% DU-145: 42%
ACHN
  GI% ACHN: 52%
TK-10
  GI% TK-10: 16%
SF-539
  GI% SF-539: 76%
NCI-H460
  GI% NCI-H460: 77%
COLO 205
  GI% COLO 205: 65%
RPMI-8226
  GI% RPMI-8226: 67%
SNB-19
  GI% SNB-19: 58%
LOX IMVI
  GI% LOX IMVI: 64%
786-0
  GI% 786-0: 63%
Escherichia coli
  % activity index, E. coli: – (Values below 25 are of limited value and not shown as they refer either to inactive or non-diffusing compounds)
OVCAR-5
  GI% OVCAR-5: 38%
NCI-H322M
  GI% NCI-H322M: 30%
UACC-257
  GI% UACC-257: 44%

## COC(=O)C1=C(C)NC(C)=C(C(=O)OC)C1c1cccc(C#N)c1 [Compound 1a, Dimethyl 4-(3-cyanophenyl)-2,6-dimethyl-1,4-dihydropyridine-3,5-dicarboxylate]
SK-MEL-5
  GI% SK-MEL-5: – (Only GI% ≥ 10 are shown)
NCI-H522
  GI% NCI-H522: – (Only GI% ≥ 10 are shown)
NCI 60 cancer cell lines
  Mean GI%: −4%
CCRF-CEM
  GI% CCRF-CEM: – (Only GI% ≥ 10 are shown)
A549/ATCC
  GI% A549/ATCC: – (Only GI% ≥ 10 are shown)
U251
  GI% U251: – (Only GI% ≥ 10 are shown)
OVCAR-3
  GI% OVCAR-3: – (Only GI% ≥ 10 are shown)
PC-3
  GI% PC-3: – (Only GI% ≥ 10 are shown)
SW-620
  GI% SW-620: – (Only GI% ≥ 10 are shown)
SR
  GI% SR: – (Only GI% ≥ 10 are shown)
HL-60(TB)
  GI% HL-60(TB): – (Only GI% ≥ 10 are shown)
KM12
  GI% KM12: – (Only GI% ≥ 10 are shown)
CAKI-1
  GI% CAKI-1: – (Only GI% ≥ 10 are shown)
SK-MEL-28
  GI% SK-MEL-28: – (Only GI% ≥ 10 are shown)
MALME-3M
  GI% MALME-3M: – (Only GI% ≥ 10 are shown)
M14
  GI% M14: – (Only GI% ≥ 10 are shown)
MOLT-4
  GI% MOLT-4: – (Only GI% ≥ 10 are shown)
A498
  GI% A498: – (Only GI% ≥ 10 are shown)
IGROV1
  GI% IGROV1: – (Only GI% ≥ 10 are shown)
NCI-H226
  GI% NCI-H226: – (Only GI% ≥ 10 are shown)
RXF 393
  GI% RXF 393: – (Only GI% ≥ 10 are shown)
MCF7
  GI% MCF7: – (Only GI% ≥ 10 are shown)
OVCAR-8
  GI% OVCAR-8: – (Only GI% ≥ 10 are shown)
HT29
  GI% HT29: – (Only GI% ≥ 10 are shown)
MDA-MB-468
  GI% MDA-MB-468: – (Only GI% ≥ 10 are shown)
MDA-MB-435
  GI% MDA-MB-435: – (Only GI% ≥ 10 are shown)
SNB-75
  GI% SNB-75: 24%
Aspergillus flavus; Aspergillus flavus, 24 h, read-out: Diameter of inhibition zone, A. flavus
  zone of inhibition at 1000 µg/mL: 15 mm
Aspergillus flavus
  % activity index, A. flavus: 60%
SN12C
  GI% SN12C: – (Only GI% ≥ 10 are shown)
SK-OV-3
  GI% SK-OV-3: – (Only GI% ≥ 10 are shown)
SF-268
  GI% SF-268: – (Only GI% ≥ 10 are shown)
Staphylococcus aureus; Staphylococcus aureus, 24 h, read-out: Diameter of inhibition zone, S. aureus
  zone of inhibition at 1000 µg/mL: 13 mm
Staphylococcus aureus
  % activity index, S. aureus: 54.2%
HCT-116
  GI% HCT-116: – (Only GI% ≥ 10 are shown)
NCI-H23
  GI% NCI-H23: – (Only GI% ≥ 10 are shown)
Bacillus subtilis; Bacillus subtilis, 24 h, read-out: Diameter of inhibition zone, B. subtilis
  zone of inhibition at 1000 µg/mL: 9 mm
Bacillus subtilis
  % activity index, B. subtilis: 39.1%
SF-295
  GI% SF-295: – (Only GI% ≥ 10 are shown)
OVCAR-4
  GI% OVCAR-4: – (Only GI% ≥ 10 are shown)
NCI/ADR-RES
  GI% NCI/ADR-RES: – (Only GI% ≥ 10 are shown)
DU-145
  GI% DU-145: – (Only GI% ≥ 10 are shown)
ACHN
  GI% ACHN: – (Only GI% ≥ 10 are shown)
TK-10
  GI% TK-10: – (Only GI% ≥ 10 are shown)
SF-539
  GI% SF-539: – (Only GI% ≥ 10 are shown)
NCI-H460
  GI% NCI-H460: – (Only GI% ≥ 10 are shown)
COLO 205
  GI% COLO 205: – (Only GI% ≥ 10 are shown)
RPMI-8226
  GI% RPMI-8226: – (Only GI% ≥ 10 are shown)
SNB-19
  GI% SNB-19: – (Only GI% ≥ 10 are shown)
LOX IMVI
  GI% LOX IMVI: – (Only GI% ≥ 10 are shown)
786-0
  GI% 786-0: – (Only GI% ≥ 10 are shown)
Escherichia coli; Escherichia coli, 24 h, read-out: Diameter of inhibition zone, E. coli
  zone of inhibition at 1000 µg/mL: 8 mm
Escherichia coli
  % activity index, E. coli: 30.8%
OVCAR-5
  GI% OVCAR-5: – (Only GI% ≥ 10 are shown)
NCI-H322M
  GI% NCI-H322M: – (Only GI% ≥ 10 are shown)
UACC-257
  GI% UACC-257: – (Only GI% ≥ 10 are shown)

Reference: PMC9481151, “Discovery of new symmetrical and asymmetrical nitrile-containing 1,4-dihydropyridine derivatives as dual kinases and P-glycoprotein inhibitors: synthesis, in vitro assays, and in silico studies” (Journal of Enzyme Inhibition and Medicinal Chemistry, 2022)
